Measurements as given in PubChem BioAssay (NCI).
“And” between values parts separate entries of the source, which are not always exact repeats. Identical values can stand only once.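 The compound was tested at five concentrations on cells cultured in 96-well plates, with a 48-hour exposure period. Abbreviation: GI50, concentration required for 50% inhibition of growth. TGI is the concentration that stops growth completely.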

Key:
Assay in all cases: NCI tumour cell line growth inhibition, 48 h
RPMI-8226 leukemia = system: RPMI-8226 leukemia
TK-10 renal = system: TK-10 renal
CCRF-CEM leukemia = system: CCRF-CEM leukemia
786-0 renal = system: 786-0 renal
SN12C renal = system: SN12C renal
A498 renal = system: A498 renal
UACC-257 melanoma = system: UACC-257 melanoma
CAKI-1 renal = system: CAKI-1 renal
SF-539 CNS = system: SF-539 CNS
UACC-62 melanoma = system: UACC-62 melanoma

Compound	GI50 (RPMI-8226 leukemia)	TGI (RPMI-8226 leukemia)	GI50 (TK-10 renal)	TGI (TK-10 renal)	GI50 (CCRF-CEM leukemia)	TGI (CCRF-CEM leukemia)	GI50 (786-0 renal)	TGI (786-0 renal)	GI50 (SN12C renal)	TGI (SN12C renal)	GI50 (A498 renal)	TGI (A498 renal)	GI50 (UACC-257 melanoma)	TGI (UACC-257 melanoma)	GI50 (CAKI-1 renal)	TGI (CAKI-1 renal)	GI50 (SF-539 CNS)	TGI (SF-539 CNS)	GI50 (UACC-62 melanoma)	TGI (UACC-62 melanoma)
C[CH2][Sn]1([CH2]C)[O]C(=O)[O][Sn]([CH2]C)([CH2]C)[O]1	17.2 µM	47.6 µM	18.7 µM	32.8 µM	5.39 µM	31.8 µM	17.6 µM	32 µM	> 63.4 µM	> 100 µM	17.7 µM	32.1 µM	17.8 µM	33 µM	1.44 µM	9.72 µM	19.7 µM	38.5 µM	16.8 µM	32.5 µM
Cc1nc2ccc(C(F)(F)F)cc2nc1Nc1ccc(Cl)c(Cl)c1	–	88.1 µM	–	31.7 µM	–	26.7 µM	–	16.1 µM	–	24.3 µM	–	–	–	25.4 µM	–	–	–	27.5 µM	–	29.1 µM
Cc1cc(/C=C2\SC(=Nc3ccccc3)N(C3CCCC3)C2=O)c(C)n1-c1ccc(Cl)cc1	> 100 µM	> 100 µM	> 100 µM	> 100 µM	> 100 µM	> 100 µM	> 100 µM	> 100 µM	> 100 µM	> 100 µM	0.295 µM	> 100 µM	> 100 µM	> 100 µM	> 100 µM	> 100 µM	> 100 µM	> 100 µM	> 100 µM	> 100 µM
CC(=O)OCC1OC(n2c(-c3ccccc3)cc(-c3ccco3)c(C#N)c2=O)C(OC(C)=O)C(OC(C)=O)C1OC(C)=O (centres undefined)	–	> 100 µM	–	> 100 µM	–	> 100 µM	–	> 100 µM	77.2 µM and 23.5 µM	> 100 µM	–	> 100 µM	–	> 100 µM	–	> 100 µM	16.3 µM and 84.6 µM	> 100 µM	23.3 µM and 55.8 µM	> 100 µM
Cc1c(CCCl)c(=O)n2c([nH]c3ccccc32)c1C#N	–	7.45 µM	–	5.62 µM	–	2.5 µM	–	2.84 µM	–	2.66 µM	–	–	–	8.04 µM	–	2.77 µM	–	2.79 µM	–	2.75 µM
O=c1cc(-c2ccccc2)[nH]c2cccc(S)c12	–	> 100 µM	–	–	–	> 100 µM	–	> 100 µM	–	> 100 µM	–	–	–	> 100 µM	–	–	–	0.594 µM	–	> 100 µM
CCN(CC)CCNc1c(OC)cc(C)c2sc3ccccc3c(=O)c12	–	3.05 µM	–	21 µM	–	–	–	28.4 µM	–	9.92 µM	–	–	–	3.6 µM	–	20.6 µM	–	23 µM	–	3.36 µM
CCC(=O)c1cn(C)c(=O)c2ccccc12	–	> 100 µM	–	> 100 µM	–	> 100 µM	–	> 100 µM	–	> 100 µM	–	–	–	> 100 µM	–	> 100 µM	–	> 100 µM	–	> 100 µM
Nc1ccc(C(=O)N/C(=C\C=C\c2ccco2)c2nc3[nH]c(=S)[nH]c(=O)c3[nH]2)cc1	–	–	–	> 100 µM	–	> 100 µM	–	> 100 µM	–	> 100 µM	–	–	–	–	–	> 100 µM	–	> 100 µM	–	–
CCOC(=O)C(C)(C)Oc1ccc2c(=O)cc(-c3ccc(Cl)cc3)oc2c1	–	> 100 µM	–	> 100 µM	–	> 100 µM	–	> 100 µM	–	> 100 µM	–	> 100 µM	–	> 100 µM	–	–	–	> 100 µM	–	> 100 µM
O=C(Oc1ccc(O)c2c(=O)n3c(cc12)[nH]c1ccccc13)c1ccccc1	11.8 µM	51.4 µM	18.8 µM	40.8 µM	3.71 µM	20.7 µM	14.4 µM	32.5 µM	12.6 µM	54 µM	20.9 µM	42.4 µM	16.6 µM	42.2 µM	–	–	6.63 µM	36.6 µM	13.7 µM	27.5 µM
CCCC(=O)c1c(NOC2OC(COC(C)=O)C(OC(C)=O)C(OC(C)=O)C2OC(C)=O)nc(OC)n(C)c1=O (centres undefined)	–	–	–	> 100 µM	–	> 100 µM	–	> 100 µM	–	> 100 µM	–	–	–	–	–	–	–	> 100 µM	–	> 100 µM
CN1CC(c2ccccc2)N(CCCCN2CC(c3ccccc3)N(C)CC2c2ccccc2)CC1c1ccccc1 (centres undefined)	–	–	–	> 100 µM	–	> 100 µM	–	> 100 µM	–	> 100 µM	–	> 100 µM	–	42.6 µM	–	> 100 µM	–	> 100 µM	–	> 100 µM
COc1cc([C@H](C)c2ccc3ccccc3c2)cc(OC)c1OC	0.325 µM	10.9 µM	12.2 µM	> 100 µM	0.274 µM	> 100 µM	0.536 µM	20 µM	1.08 µM	> 100 µM	0.255 µM	7.34 µM	1.97 µM	44 µM	–	–	0.297 µM	> 100 µM	0.499 µM	> 100 µM
CCCCCCC/C=C/[C@H]1O[C@]23C(=O)C[C@@]4(C[C@@H](OC5OC(CO)C(O)C(O)C5O)C[C@@H]4[C@H]2C=C1C)OC3=O (some centres undefined)	1.28 µM	> 33.3 µM	6.14 µM	12.6 µM	1.19 µM	> 33.3 µM	4.9 µM	10.1 µM	5.46 µM	14.9 µM	4.78 µM	9.43 µM	5.21 µM	12.4 µM	–	–	5.1 µM	9.99 µM	4.47 µM	10.9 µM
O=C(C(O)c1cn(Cc2ccccc2)c2ccccc12)N1CCCCC1 (centres undefined)	–	> 100 µM	–	> 10 µM	–	> 100 µM	–	> 100 µM	–	> 100 µM	–	> 100 µM	–	> 100 µM	–	–	–	> 100 µM	–	> 100 µM
CCN(CC)CCn1c2c3ccccc3ccc2c2oc(=O)c3ccccc3c21	–	> 100 µM	–	> 100 µM	–	> 100 µM	–	58.5 µM	–	–	–	–	–	> 100 µM	–	> 100 µM	–	66.1 µM	–	> 100 µM
Cc1cc(S(=O)(=O)Nc2nc(N)nc(N3N=CCC3C)n2)c(S)cc1Cl (centres undefined)	–	> 10 µM	–	> 10 µM	–	> 10 µM	–	> 10 µM	–	> 10 µM	–	> 10 µM	–	> 10 µM	–	> 10 µM	–	> 10 µM	–	–
